Columns and labels:
Type in all cases: in vivo, human
[1] = Serum serelaxin pharmacokinetics (ELISA, non-compartmental)
Method: Blood samples (approximately 2 mL) for pharmacokinetic (PK) evaluation were collected at 0 (pre-dose), 24, 48, 50, and 54 h, and Day 30. Serum serelaxin concentration was determined by an enzyme-linked immunosorbent assay, developed and validated based upon a commercially available kit (Quantikine ELISA kit, R&D systems, MN, USA).[29] The PK parameters were calculated using non-compartmental methods that included steady-state concentration (Css) and systemic clearance (CL). Css was estimated using the serum concentration determined at 48 h, while CL was estimated using the rate of infusion and Css for each patient.

cystatin C = assay: Plasma biomarker cystatin C; settings: for Cystatin C, geo-mean (95% CI): plasma
Method: (§1) Biomarkers reported include: N-terminal pro-brain natriuretic peptide (NT-proBNP), high-sensitivity troponin T (hsTnT) measured to assess myocardial safety; cystatin C measured to access renal function; the biologically active form of endothelin-1 (1–21), measured to assess vascular function. Venous blood samples were collected at 0 (pre-dose), 24, 48, and 54 h, Day 30, and Day 180. NT-proBNP, hsTnT, and cystatin C samples were collected in EDTA tubes while endothelin-1 samples were collected in EDTA tubes containing aprotinin. Plasma was immediately frozen at −70°C pending analysis in complete patient sets. Commercial biomarker kits were as follows: hsTnT from Roche Diagnostics GmbH, Germany; cystatin C from Gentian, Moss, Norway; and active endothelin-1 […] from Biomedica Medizinprodukte, Vienna, Austria.
(§2) For the biomarker analyses, baseline was defined as the pre-dose assessment on Day 1. Raw values as well as changes from baseline were summarized by treatment and time. Descriptive statistics included geometric mean and 95% CI. For geometric means of change from baseline, a ratio to baseline was used to determine percentage change by first calculating in the log domain and then back transforming using exponentiation.
(§3) Baseline corresponds to the value at day 1 pre-dose. For change from baseline, geometric mean and its CI are calculated for the value (post) to baseline ratio.

NT-proBNP = assay: Plasma biomarker NT-proBNP; settings: for NT-proBNP, geo-mean (95% CI): plasma
Method: as §1, §2, §3

Substance: Serelaxin
- Systemic clearance (CL), geometric mean ([1]; estimated from rate of infusion and Css, 48 h IV infusion 30 µg/kg/day): 1.38 mL/min/kg
- Steady-state serum concentration (Css), geometric mean ([1]; serum concentration at 48 h of 48 h IV infusion 30 µg/kg/day, ELISA, non-compartmental): 15.1 ng/mL
- Cystatin C change from baseline, geometric mean ratio to baseline (95% CI) (cystatin C; 24 h, n=27): 0.92 (0.89, 0.94)
- Cystatin C change from baseline, geometric mean ratio to baseline (95% CI) (cystatin C; 48 h, n=28): 0.93 (0.91, 0.96)
- Cystatin C change from baseline, geometric mean ratio to baseline (95% CI) (cystatin C; 48 h, n=28, listed as serelaxin): 0.93
- Cystatin C change from baseline, geometric mean ratio to baseline (95% CI) (cystatin C; 54 h, n=27): 0.87 (0.80, 0.94)
- Cystatin C change from baseline, geometric mean ratio to baseline (95% CI) (cystatin C; 54 h, n=27, listed as serelaxin): 0.87
- Cystatin C change from baseline, geometric mean ratio to baseline (95% CI) (cystatin C; Day 30, n=29): 0.97 (0.93, 1.00)
- Cystatin C change from baseline, geometric mean ratio to baseline (95% CI) (cystatin C; Day 180, n=29): 0.98 (0.89, 1.07)
- Cystatin C, geo-mean (95% CI) (cystatin C; 0 h (pre-dose baseline), n=29): 0.931 (0.876, 0.990) mg/L
- Cystatin C, geo-mean (95% CI) (cystatin C; 0 h (pre-dose baseline), n=29, listed as serelaxin): 0.93 mg/L
- Cystatin C, geo-mean (95% CI) (cystatin C; 24 h, n=27): 0.839 (0.788, 0.893) mg/L
- Cystatin C, geo-mean (95% CI) (cystatin C; 48 h, n=28): 0.867 (0.812, 0.926) mg/L
- Cystatin C, geo-mean (95% CI) (cystatin C; 54 h, n=27): 0.796 (0.721, 0.878) mg/L
- Cystatin C, geo-mean (95% CI) (cystatin C; Day 30, n=29): 0.899 (0.842, 0.960) mg/L
- Cystatin C, geo-mean (95% CI) (cystatin C; Day 180, n=29): 0.908 (0.821, 1.004) mg/L
- NT-proBNP change from baseline, geometric mean ratio to baseline (95% CI) (NT-proBNP; 24 h, n=27): 0.89 (0.77, 1.02)
- NT-proBNP change from baseline, geometric mean ratio to baseline (95% CI) (NT-proBNP; 48 h, n=28): 1.03 (0.79, 1.34)
- NT-proBNP change from baseline, geometric mean ratio to baseline (95% CI) (NT-proBNP; 54 h, n=27): 1.36 (1.06, 1.75)
- NT-proBNP change from baseline, geometric mean ratio to baseline (95% CI) (NT-proBNP; Day 30, n=29): 1.02 (0.80, 1.29)
- NT-proBNP change from baseline, geometric mean ratio to baseline (95% CI) (NT-proBNP; Day 180, n=29): 1.17 (0.86, 1.58)
- NT-proBNP, geo-mean (95% CI) (NT-proBNP; 0 h (pre-dose baseline), n=29): 87.0 (60.2, 125.8) pg/mL
- NT-proBNP, geo-mean (95% CI) (NT-proBNP; 24 h, n=27): 74.7 (51.9, 107.5) pg/mL
- NT-proBNP, geo-mean (95% CI) (NT-proBNP; 48 h, n=28): 86.8 (57.7, 130.5) pg/mL
- NT-proBNP, geo-mean (95% CI) (NT-proBNP; 54 h, n=27): 117.1 (79.9, 171.7) pg/mL
- NT-proBNP, geo-mean (95% CI) (NT-proBNP; Day 30, n=29): 88.4 (60.3, 129.7) pg/mL
- NT-proBNP, geo-mean (95% CI) (NT-proBNP; Day 180, n=29): 101.6 (69.9, 147.8) pg/mL

— PMC7797213, “Vascular effects of serelaxin in patients with stable coronary artery disease: a randomized placebo-controlled trial” (Cardiovascular Research, 2020)
